From patent US11299501B2 (BRISTOL-MYERS SQUIBB COMPANY, priority 2017, dated 2022)

Tests used:
Assay type in all cases: cell-based
human TLR7 = biological target: T1, human TLR7 (Homo sapiens, UniProt Q9NYK1); test: TLR7 inhibition reporter assay (HEK-Blue SEAP); details: cells overexpressing human TLR7, SEAP reporter, stimulated with gardiquimod 7.5 μM, 22 hour incubation
T1 construct: host or cells: HEK-Blue cells
T1 sequence (Q9NYK1 27-1049): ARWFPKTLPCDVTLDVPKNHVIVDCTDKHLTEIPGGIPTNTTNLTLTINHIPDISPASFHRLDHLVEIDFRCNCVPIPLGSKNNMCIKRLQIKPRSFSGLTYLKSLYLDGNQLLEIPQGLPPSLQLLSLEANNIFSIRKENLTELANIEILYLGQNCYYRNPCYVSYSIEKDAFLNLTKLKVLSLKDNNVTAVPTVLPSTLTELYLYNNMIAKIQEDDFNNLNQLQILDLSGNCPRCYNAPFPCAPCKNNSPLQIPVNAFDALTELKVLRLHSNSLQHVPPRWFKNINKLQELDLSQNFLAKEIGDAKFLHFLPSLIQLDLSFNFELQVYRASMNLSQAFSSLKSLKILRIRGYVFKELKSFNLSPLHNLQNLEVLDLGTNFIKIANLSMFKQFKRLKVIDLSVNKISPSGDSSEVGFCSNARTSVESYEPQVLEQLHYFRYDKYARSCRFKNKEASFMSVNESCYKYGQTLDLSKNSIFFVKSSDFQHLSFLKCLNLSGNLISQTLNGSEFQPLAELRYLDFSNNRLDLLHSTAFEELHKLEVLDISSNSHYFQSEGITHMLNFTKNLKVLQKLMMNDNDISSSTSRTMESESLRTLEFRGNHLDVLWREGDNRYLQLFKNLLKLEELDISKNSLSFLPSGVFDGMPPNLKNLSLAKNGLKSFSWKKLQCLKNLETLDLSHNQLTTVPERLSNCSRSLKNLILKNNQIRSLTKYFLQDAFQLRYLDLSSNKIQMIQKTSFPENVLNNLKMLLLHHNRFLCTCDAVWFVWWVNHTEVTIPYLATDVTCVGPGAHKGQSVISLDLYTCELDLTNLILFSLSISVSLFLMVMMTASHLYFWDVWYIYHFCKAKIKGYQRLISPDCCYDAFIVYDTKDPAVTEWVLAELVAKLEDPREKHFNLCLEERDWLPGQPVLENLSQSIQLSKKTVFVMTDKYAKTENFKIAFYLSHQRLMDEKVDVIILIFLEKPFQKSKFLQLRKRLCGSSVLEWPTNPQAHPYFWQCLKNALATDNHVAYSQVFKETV
How it was run: (§1)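 HEK-Blue cells expressing human TLR7, TLR8 or TLR9 with NF-κB/AP-1-driven SEAP reporter pre-treated 30 min at room temperature with compound (0.05 nM–50 μM), then stimulated with gardiquimod 7.5 μM (TLR7), R848 15.9 μM (TLR8) or ODN2006 5 nM (TLR9). SEAP read after 22 h at 37 °C; % inhibition relative to agonist+DMSO and reference-inhibitor wells.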

human TLR9 = biological target: T2, human TLR9 (Homo sapiens, UniProt Q9NR96); test: TLR9 inhibition reporter assay (HEK-Blue SEAP); details: cells overexpressing human TLR9, SEAP reporter, stimulated with ODN2006 5 nM, 22 hour incubation
T2 construct: host or cells: HEK-Blue cells
T2 sequence (Q9NR96 26-1032): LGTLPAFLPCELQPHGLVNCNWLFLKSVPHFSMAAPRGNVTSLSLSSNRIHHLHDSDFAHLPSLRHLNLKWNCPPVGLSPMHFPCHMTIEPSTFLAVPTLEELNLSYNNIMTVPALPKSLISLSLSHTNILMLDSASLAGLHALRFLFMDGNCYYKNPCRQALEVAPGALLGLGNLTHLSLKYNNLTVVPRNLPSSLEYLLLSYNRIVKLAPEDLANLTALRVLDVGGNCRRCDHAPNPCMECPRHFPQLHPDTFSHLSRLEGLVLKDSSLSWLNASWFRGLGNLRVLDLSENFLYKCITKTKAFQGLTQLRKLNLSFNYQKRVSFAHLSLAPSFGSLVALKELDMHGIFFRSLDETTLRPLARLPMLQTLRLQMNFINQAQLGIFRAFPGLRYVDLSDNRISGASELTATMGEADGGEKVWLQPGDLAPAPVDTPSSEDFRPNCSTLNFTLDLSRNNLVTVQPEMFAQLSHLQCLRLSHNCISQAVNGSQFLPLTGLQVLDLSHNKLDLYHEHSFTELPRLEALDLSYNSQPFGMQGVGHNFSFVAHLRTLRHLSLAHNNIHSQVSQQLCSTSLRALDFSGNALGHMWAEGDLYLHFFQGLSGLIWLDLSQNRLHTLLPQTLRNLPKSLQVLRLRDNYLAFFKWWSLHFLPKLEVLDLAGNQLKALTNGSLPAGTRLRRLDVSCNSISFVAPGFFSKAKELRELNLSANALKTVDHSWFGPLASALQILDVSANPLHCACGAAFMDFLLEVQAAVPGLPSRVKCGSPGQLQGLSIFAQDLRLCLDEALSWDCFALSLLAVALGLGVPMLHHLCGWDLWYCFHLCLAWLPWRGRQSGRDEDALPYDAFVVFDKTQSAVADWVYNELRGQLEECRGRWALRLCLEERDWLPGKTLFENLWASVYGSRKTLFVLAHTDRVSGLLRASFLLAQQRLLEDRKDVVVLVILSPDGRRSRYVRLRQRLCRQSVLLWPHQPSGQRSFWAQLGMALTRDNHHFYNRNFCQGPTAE
How it was run: as §1

human TLR8 = biological target: T3, human TLR8 (Homo sapiens, UniProt Q9NR97); test: TLR8 inhibition reporter assay (HEK-Blue SEAP); details: cells overexpressing human TLR8, SEAP reporter, stimulated with R848 15.9 μM, 22 hour incubation
T3 construct: host or cells: HEK-Blue cells
T3 sequence (Q9NR97 27-1041): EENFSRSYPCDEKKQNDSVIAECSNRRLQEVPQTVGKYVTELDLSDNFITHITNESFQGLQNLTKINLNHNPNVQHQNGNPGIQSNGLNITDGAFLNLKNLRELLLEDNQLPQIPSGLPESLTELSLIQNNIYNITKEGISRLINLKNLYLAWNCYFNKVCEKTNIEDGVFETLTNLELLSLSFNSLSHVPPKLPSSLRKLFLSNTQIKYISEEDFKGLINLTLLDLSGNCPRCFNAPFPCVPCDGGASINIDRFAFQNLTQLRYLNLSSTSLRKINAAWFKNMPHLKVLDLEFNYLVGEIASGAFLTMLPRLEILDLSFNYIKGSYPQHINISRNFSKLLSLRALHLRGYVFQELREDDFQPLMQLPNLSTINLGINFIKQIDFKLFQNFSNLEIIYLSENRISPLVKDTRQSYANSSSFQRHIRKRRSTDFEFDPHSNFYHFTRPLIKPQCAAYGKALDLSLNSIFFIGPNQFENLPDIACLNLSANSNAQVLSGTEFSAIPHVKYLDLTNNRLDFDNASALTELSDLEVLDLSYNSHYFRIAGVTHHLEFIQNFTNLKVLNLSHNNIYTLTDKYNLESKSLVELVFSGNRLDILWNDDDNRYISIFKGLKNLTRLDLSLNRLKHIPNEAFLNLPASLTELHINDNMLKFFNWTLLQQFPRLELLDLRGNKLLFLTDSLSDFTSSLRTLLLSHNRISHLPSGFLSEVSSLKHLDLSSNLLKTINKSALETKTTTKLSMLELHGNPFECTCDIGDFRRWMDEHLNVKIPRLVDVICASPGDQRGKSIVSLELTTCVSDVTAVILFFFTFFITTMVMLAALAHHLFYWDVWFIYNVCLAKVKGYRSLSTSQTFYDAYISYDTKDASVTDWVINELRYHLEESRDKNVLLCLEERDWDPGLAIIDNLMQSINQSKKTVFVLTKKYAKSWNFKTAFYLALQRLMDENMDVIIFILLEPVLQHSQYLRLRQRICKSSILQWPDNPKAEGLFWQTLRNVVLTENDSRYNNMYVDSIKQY
How it was run: as §1

Row | Structure (SMILES) | IC50 (human TLR7) | IC50 (human TLR9) | IC50 (human TLR8)
1 | CCc1c(-c2ccc(OC)c(OC)c2)[nH]c2cnc(-c3nnc(CCCN(C)C)o3)nc12 [Example 37, 3-(5-(6-(3,4-dimethoxyphenyl)-7-ethyl-5H-pyrrolo[3,2-d]pyrimidin-2-yl)-1,3,4-oxadiazol-2-yl)-N,N-dimethylpropan-1-amine] | 1000 to 50000 nM | 1000 to 50000 nM | 100 to 1000 nM
2 | CCc1c(-c2ccc(OC)c(OC)c2)[nH]c2cnc(-c3nnc(CCNC)o3)nc12 [Example 38, 2-(5-(6-(3,4-dimethoxyphenyl)-7-ethyl-5H-pyrrolo[3,2-d]pyrimidin-2-yl)-1,3,4-oxadiazol-2-yl)-N-methylethan-1-amine] | 1000 to 50000 nM | 1000 to 50000 nM | 100 to 1000 nM
3 | CCc1c(-c2ccc(OC)c(OC)c2)[nH]c2cnc(-c3nnc(C(C)(C)N)o3)nc12 [Example 39, 2-(5-(6-(3,4-dimethoxyphenyl)-7-ethyl-5H-pyrrolo[3,2-d]pyrimidin-2-yl)-1,3,4-oxadiazol-2-yl)propan-2-amine] | 1000 to 50000 nM | > 50000 nM | 1000 to 50000 nM
4 | CCc1c(-c2ccc(OC)c(OC)c2)[nH]c2cnc(-c3nnc(CNC)o3)nc12 [Example 42, 1-(5-(6-(3,4-dimethoxyphenyl)-7-ethyl-5H-pyrrolo[3,2-d]pyrimidin-2-yl)-1,3,4-oxadiazol-2-yl)-N-methylmethanamine] | 1000 to 50000 nM | 1000 to 50000 nM | 100 to 1000 nM
5 | CCc1c(-c2ccc(OC)c(OC)c2)[nH]c2cnc(-c3nnc(C[C@@H]4CCCN4)o3)nc12 [Example 45, (S)-2-(6-(3,4-dimethoxyphenyl)-7-ethyl-5H-pyrroIo[3,2-d]pyrimidin-2-yl)-5-(pyrrolidin-2-ylmethyl)-1,3,4-oxadiazole] | 1000 to 50000 nM | 1000 to 50000 nM | 1000 to 50000 nM
6 | CCc1c(-c2ccc(OC)c(OC)c2)[nH]c2cnc(-c3nnc(C[C@@H]4CCCCN4)o3)nc12 [Example 46, (S)-2-(6-(3,4-dimethoxyphenyl)-7-ethyl-5H-pyrrolo[3,2-d]pyrimidin-2-yl)-5-(piperidin-2-ylmethyl)-1,3,4-oxadiazole] | 1000 to 50000 nM | 1000 to 50000 nM | 100 to 1000 nM
7 | CCc1c(-c2ccc(OC)c(OC)c2)[nH]c2cnc(-c3nnc(CCN(C)C)o3)nc12 [Example 48, 2-(5-(6-(3,4-dimethoxyphenyl)-7-ethyl-5H-pyrrolo[3,2-d]pyrimidin-2-yl)-1,3,4-oxadiazol-2-yl)-N,N-dimethylethan-1-amine] | 1000 to 50000 nM | 1000 to 50000 nM | 100 to 1000 nM
8 | CCc1c(-c2ccc(OC)c(OC)c2)[nH]c2cnc(C3CCN(CC(=O)N(C)C)CC3)nc12 [Example 49] | 100 to 1000 nM | 1000 to 50000 nM | < 100 nM
9 | CCc1c(-c2ccc(OC)c(OC)c2)[nH]c2cnc(C3CCN(CC(=O)NC)CC3)nc12 [Example 50] | 100 to 1000 nM | 1000 to 50000 nM | 100 to 1000 nM
10 | CCc1c(-c2ccc(OC)c(OC)c2)[nH]c2cnc(C3CCN(Cc4c[nH]cn4)CC3)nc12 [Example 51, 2-(1-((1H-imidazol-4-yl)methyl)piperidin-4-yl)-6-(3,4-dimethoxyphenyl)-7-ethyl-5H-pyrrolo[3,2-d]pyrimidine] | 100 to 1000 nM | 1000 to 50000 nM | 100 to 1000 nM

Other lines, results leading:

Row | IC50 (human TLR7) | IC50 (human TLR9) | IC50 (human TLR8) | Structure (SMILES)
11 | 100 to 1000 nM | 100 to 1000 nM | 100 to 1000 nM | CCc1c(-c2ccc(OC)c(OC)c2)[nH]c2cnc(-c3nnc([C@H]4CCCNC4)o3)nc12 [Example 40, (S)-2-(6-(3,4-dimethoxyphenyl)-7-ethyl-5H-pyrrolo[3,2-d]pyrimidin-2-yl)-5-(piperidin-3-yl)-1,3,4-oxadiazole]
12 | 1000 to 50000 nM | 1000 to 50000 nM | 1000 to 50000 nM | CCc1c(-c2ccc(OC)c(OC)c2)[nH]c2cnc(-c3nnc([C@@H]4CCNC4)o3)nc12 [Example 41, (R)-2-(6-(3,4-dimethoxyphenyl)-7-ethyl-5H-pyrrolo[3,2-d]pyrimidin-2-yl)-5-(pyrrolidin-3-yl)-1,3,4-oxadiazole]
13 | 1000 to 50000 nM | 1000 to 50000 nM | 100 to 1000 nM | CCc1c(-c2ccc(OC)c(OC)c2)[nH]c2cnc(-c3nnc([C@@H]4CCCNC4)o3)nc12 [Example 43, (R)-2-(6-(3,4-dimethoxyphenyl)-7-ethyl-5H-pyrrolo[3,2-d]pyrimidin-2-yl)-5-(piperidin-3-yl)-1,3,4-oxadiazole]
14 | 1000 to 50000 nM | 1000 to 50000 nM | 1000 to 50000 nM | CCc1c(-c2ccc(OC)c(OC)c2)[nH]c2cnc(-c3nnc([C@H]4CCNC4)o3)nc12 [Example 44, (S)-2-(6-(3,4-dimethoxyphenyl)-7-ethyl-5H-pyrrolo[3,2-d]pyrimidin-2-yl)-5-(pyrrolidin-3-yl)-1,3,4-oxadiazole]
15 | 1000 to 50000 nM | 1000 to 50000 nM | 100 to 1000 nM | CCc1c(-c2ccc(OC)c(OC)c2)[nH]c2cnc(-c3nnc(C[C@H]4CCCN4)o3)nc12 [Example 47, (R)-2-(6-(3,4-dimethoxyphenyl)-7-ethyl-5H-pyrrolo[3,2-d]pyrimidin-2-yl)-5-(pyrrolidin-2-ylmethyl)-1,3,4-oxadiazole]
